According to publication PMC7016953 (Cells, 2020):

Assays:
TRPC6 = tested on: T1, TRPC6; test: Microfluorometric single-cell [Ca2+]i analysis, fura-2-loaded HEK cells stably expressing TRPC6; assay type: cell-based, human; settings: 50 µM, standard bath 1 mM Ca2+
T1 construct: expressed in transfected cells
Procedure: The microfluorometric single-cell [Ca^2+]i analysis was performed on an inverted epifluorescence microscope (Carl Zeiss, Jena, Germany) and calibrated as described. Cells were grown on 25 mm coverslips and loaded with 4 µM fura-2/AM (AAT Bioquest, Sunnyvale, CA, U.S.A.) in HBS containing 0.2% BSA for 30 min at 37 °C. […] Experiments were performed either in standard bath solution, containing 1 mM Ca^2+ (black lines and bars), or in a nominally Ca^2+-free HBS buffer, supplemented with 200 µM EGTA (grey lines and bars). Time courses of averaged responses (left), and statistical analysis of 6–11 independent imaging experiments with means and S.D. (right) are shown. Significant differences (p < 0.05, Student´s t-test with paired data: #, with unpaired data: *) are marked for the indicated comparisons; n.s.: difference is statistically not significant.

TRPC3 [1] = target: T2, TRPC3 (Homo sapiens, UniProt Q13507); test: Fluo-4 Ca2+ influx assay in HEK TRPC3-YFP cell suspensions; assay type: cell-based
T2 construct: expressed in transfected cells
T2 sequence (Q13507 1-848 isoform Q13507-3): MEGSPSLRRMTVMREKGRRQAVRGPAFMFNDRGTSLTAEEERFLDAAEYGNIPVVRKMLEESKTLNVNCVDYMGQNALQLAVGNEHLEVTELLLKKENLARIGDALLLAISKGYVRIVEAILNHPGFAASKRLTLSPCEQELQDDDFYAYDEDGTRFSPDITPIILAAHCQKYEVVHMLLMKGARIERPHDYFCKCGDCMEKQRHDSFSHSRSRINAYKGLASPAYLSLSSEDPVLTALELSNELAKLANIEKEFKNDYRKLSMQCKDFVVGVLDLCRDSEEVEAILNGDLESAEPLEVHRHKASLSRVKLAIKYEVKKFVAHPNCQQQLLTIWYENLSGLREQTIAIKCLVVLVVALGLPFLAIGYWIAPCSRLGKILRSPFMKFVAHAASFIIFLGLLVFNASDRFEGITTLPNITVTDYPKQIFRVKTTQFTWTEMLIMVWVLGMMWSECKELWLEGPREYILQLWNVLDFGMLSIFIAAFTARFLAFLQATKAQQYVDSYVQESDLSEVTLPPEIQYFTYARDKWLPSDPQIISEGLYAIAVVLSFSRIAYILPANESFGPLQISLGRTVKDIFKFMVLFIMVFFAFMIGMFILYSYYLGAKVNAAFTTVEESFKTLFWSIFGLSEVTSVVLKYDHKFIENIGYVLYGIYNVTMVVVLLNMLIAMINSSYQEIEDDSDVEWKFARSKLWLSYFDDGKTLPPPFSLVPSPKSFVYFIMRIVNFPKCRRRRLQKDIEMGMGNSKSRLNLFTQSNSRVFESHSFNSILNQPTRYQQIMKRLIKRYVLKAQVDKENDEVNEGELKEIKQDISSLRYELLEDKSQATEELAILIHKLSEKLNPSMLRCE

TRPC3 [2] = target: T2, TRPC3; test: Outside-out patch recordings from HEK TRPC3-YFP cells; assay type: cell-based; settings: 50 µM, outside-out patches, −100 mV, n = 6
Procedure: The recordings of TRPC3, TRPC6, or TRPC7 membrane currents in HEK293 or PC12 cells were realized by using a Multiclamp 700B amplifier with a Digidata 1440A digitizer controlled by the PClamp 10 software (all Molecular Devices, Sunnyvale, CA, U.S.A.). Recordings were obtained at room temperature either in the whole-cell or in an outside-out configuration as indicated. Cells were seeded as described above, but at lower density, mounted in a chamber (Warner Instruments, Hamden, CT; U.S.A.), placed onto the stage of an inverted microscope, and perfused with required solution. The standard extracellular solution contained 140 mM NaCl, 5 mM CsCl, 2 mM MgCl2, 1 mM CaCl2, 10 mM HEPES, and 0.035% BSA adjusted to pH 7.4 with NaOH. The composition of standard intracellular solution was 140 mM CsCl, 1 mM MgCl2, 5 mM EGTA, and 10 mM HEPES adjusted to pH 7.25 with CsOH; the osmolarity was 295 mOsm l^−1. In outside-out measurements, the pipette solution contained 5 mM EGTA and 1.1 mM CaCl2 to achieve a calculated free Ca^2+ concentration of 100 nM. […]
Outside-out patches were obtained from HEKTRPC3-YFP cells, and ionic currents were continuously recorded at a patch potential of –100 mV. […] (B) The open probability (Po) for the unknown number N of channels in the patch of the experiment shown in (A) was calculated over 2 s bins and plotted at the same time scale.

C[C@@H]1CC[C@H]2[C@@H](C)C(=O)O[C@@H]3O[C@@]4(C)CC[C@@H]1[C@]32OO4 [artemisinin]
[Ca2+]i response in TRPC6-expressing cells (TRPC6): remained unaffected
fluorescence signal of the Ca2+ indicator in primary screen (TRPC3 [1]; 20 µM, acute addition): immediate and transient increase in the fluorescence signal
EC50 of artemisinin under simultaneous application of OAG (TRPC3 [1]; 10–100 µM OAG co-applied): not affected
EC50 (TRPC3 [1]; fluo-4, HEK TRPC3-YFP cell suspensions, read-out: potency to activate Ca2+ entry through TRPC3): 32.8 µM
Ca2+ influx signals after preincubation with OAG (TRPC3 [1]; preincubation with 500 nM, 1 µM, or 5 µM OAG): did not induce stronger Ca^2+ influx signals
increase in the open probability (TRPC3 [2]): about 5.5 fold
